Key:
CYP3A4 = target: T1, CYP3A4 (Homo sapiens, UniProt P08684); experiment: CYP isoenzyme activity inhibition in human liver microsomes, CYP3A4; assay type: in vitro ADME; settings: 10 µM compound; human liver microsomes 0.25 mg/mL; relative to control without compound
T1 construct: human liver microsomes (0.25 mg/mL); from tissue; host or cells: human liver microsomes
Method in brief: (§1)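 Human liver microsomes 0.25 mg/mL, pH 7.4 phosphate, with cocktail substrates phenacetin 50 µM (1A2), diclofenac 10 µM (2C9), S-mephenytoin 100 µM (2C19), midazolam 2.5 µM (3A4); compound at 10 µM. 5 min pre-incubation, then NADPH for 15 min at 37 °C; metabolites by LC-MS/MS MRM, reported as % activity of no-compound control.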

[1] = Liver microsomal stability, human; assay type: in vitro ADME; settings: 1 µM compound; 0.5 mg/mL microsomes; NADPH; 30 minutes at 37°C
Method in brief: (§2)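 Compound (1 µM) incubated with liver microsomes (0.5 mg/mL; human, dog, rat, mouse) in 0.1 M phosphate pH 7.4, 5 min preincubation at 37°C, then 30 min with NADPH-generating system. Acetonitrile quench; remaining parent quantified by LC-MS/MS.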

CYP2C9 = target: T2, CYP2C9 (Homo sapiens, UniProt P11712); experiment: CYP isoenzyme activity inhibition in human liver microsomes, CYP2C9; assay type: in vitro ADME; settings: 10 µM compound; human liver microsomes 0.25 mg/mL; relative to control without compound
T2 construct: human liver microsomes (0.25 mg/mL); from tissue; host or cells: human liver microsomes
T2 sequence (P11712 whole entry): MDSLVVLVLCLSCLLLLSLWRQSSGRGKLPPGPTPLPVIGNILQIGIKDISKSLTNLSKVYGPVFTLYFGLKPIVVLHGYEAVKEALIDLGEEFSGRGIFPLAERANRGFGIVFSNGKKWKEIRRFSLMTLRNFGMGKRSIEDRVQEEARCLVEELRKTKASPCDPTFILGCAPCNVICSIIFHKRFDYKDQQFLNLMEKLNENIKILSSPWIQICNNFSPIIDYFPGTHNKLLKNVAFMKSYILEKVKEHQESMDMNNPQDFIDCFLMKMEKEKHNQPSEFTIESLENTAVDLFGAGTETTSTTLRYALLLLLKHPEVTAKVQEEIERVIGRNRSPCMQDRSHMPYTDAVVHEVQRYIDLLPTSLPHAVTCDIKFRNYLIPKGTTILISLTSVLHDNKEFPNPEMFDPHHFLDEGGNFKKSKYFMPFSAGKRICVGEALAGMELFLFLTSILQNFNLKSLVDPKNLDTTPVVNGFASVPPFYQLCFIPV
Method in brief: as §1

Tau-BiFC cells = experiment: Cell viability (stained nuclei count) in Tau-BiFC cells; assay type: cell-based; settings: @10 µM; Tau-BiFC cell line; Forskolin-only group = 100%
Method in brief: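 Tau-BiFC cells were co-treated with compound (1, 3, 10 µM for screening; 0.03–30 µM for IC50) and 30 µM Forskolin for 48 h. BiFC fluorescence was normalised to the Forskolin-only window for aggregation; viability came from Hoechst-stained nuclei counts relative to Forskolin-only (100%). IC50 was derived by nonlinear regression.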

[2] = Liver microsomal stability, mouse; assay type: in vitro ADME; settings: 1 µM compound; 0.5 mg/mL microsomes; NADPH; 30 minutes at 37°C
Method in brief: as §2

CYP2D6 = target: T3, CYP2D6 (Homo sapiens, UniProt P10635); experiment: CYP isoenzyme activity inhibition in human liver microsomes, CYP2D6; assay type: in vitro ADME; settings: 10 µM compound; human liver microsomes 0.25 mg/mL; relative to control without compound
T3 construct: human liver microsomes (0.25 mg/mL); from tissue; host or cells: human liver microsomes
T3 sequence (P10635 whole entry): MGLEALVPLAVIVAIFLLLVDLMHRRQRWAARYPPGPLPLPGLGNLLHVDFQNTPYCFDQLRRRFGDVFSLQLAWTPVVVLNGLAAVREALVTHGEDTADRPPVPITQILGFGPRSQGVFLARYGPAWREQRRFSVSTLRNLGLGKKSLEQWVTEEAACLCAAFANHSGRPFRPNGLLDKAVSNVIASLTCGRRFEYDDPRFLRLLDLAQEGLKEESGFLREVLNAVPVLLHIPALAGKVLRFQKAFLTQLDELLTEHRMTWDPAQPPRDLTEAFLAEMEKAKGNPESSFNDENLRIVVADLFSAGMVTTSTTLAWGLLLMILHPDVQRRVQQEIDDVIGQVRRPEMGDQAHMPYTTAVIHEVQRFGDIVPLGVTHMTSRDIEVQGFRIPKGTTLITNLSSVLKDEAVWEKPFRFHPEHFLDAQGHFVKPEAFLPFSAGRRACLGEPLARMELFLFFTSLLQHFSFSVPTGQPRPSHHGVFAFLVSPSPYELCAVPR

T1 sequence (P08684 whole entry): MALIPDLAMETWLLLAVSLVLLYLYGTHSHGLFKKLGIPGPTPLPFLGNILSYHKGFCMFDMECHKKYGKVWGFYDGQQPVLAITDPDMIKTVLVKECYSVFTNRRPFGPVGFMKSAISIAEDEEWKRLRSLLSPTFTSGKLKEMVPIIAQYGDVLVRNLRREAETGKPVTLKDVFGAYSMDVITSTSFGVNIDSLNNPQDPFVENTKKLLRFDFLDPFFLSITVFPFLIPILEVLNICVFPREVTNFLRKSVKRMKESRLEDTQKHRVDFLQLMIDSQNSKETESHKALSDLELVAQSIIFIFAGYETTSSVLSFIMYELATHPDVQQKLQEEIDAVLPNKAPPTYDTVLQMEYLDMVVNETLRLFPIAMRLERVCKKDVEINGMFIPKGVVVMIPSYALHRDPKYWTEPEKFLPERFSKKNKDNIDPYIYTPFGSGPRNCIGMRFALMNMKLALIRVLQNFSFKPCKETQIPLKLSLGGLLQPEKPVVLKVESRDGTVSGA

SMILES	CYP3A4 (% activity) (CYP3A4)	Human microsomes (% remaining) [1] [% remaining]	CYP2C9 (% activity) (CYP2C9)	Cell viability (% @10µM) (Tau-BiFC cells) [%]	Mouse microsomes (% remaining) [2] [% remaining]	CYP2D6 (% activity) (CYP2D6)
N#CC(C#N)=NNc1ccc2nc(N3CC4CCC(C3)O4)sc2c1 [Compound 23, (2-(8-oxa-3-azabicyclo[3.2.1]octan-3-yl)benzo[d]thiazol-6-yl)carbonohydrazonoyl dicyanide]	71.7	85.6	68.5	92	86.6	71.5
CC1CN(c2nc3ccc(NN=C(C#N)C#N)cc3o2)CCO1 (stereo not drawn) [Compound 15, (2-(2-methylmorpholino)benzo[d]oxazol-6-yl)carbonohydrazonoyl dicyanide]	87.3	> 100	88.6	100	> 100	> 100
CCn1c(N2CCOCC2)nc2ccc(NN=C(C#N)C#N)cc21 [Compound 32, (1-ethyl-2-morpholino-1H-benzo[d]imidazol-6-yl)carbonohydrazonoyl dicyanide]	73	95.5	65.1	98	92.3	92.1
CN1CCN(c2nc3ccc(NN=C(C#N)C#N)cc3s2)CC1 [Compound 8, (2-(4-methylpiperazin-1-yl)benzo[d]thiazol-6-yl)carbonohydrazonoyl dicyanide]	95	83.9	> 100	101	77.4	> 100
N#CC(C#N)=NNc1ccc2sc(N3CCOCC3)nc2c1 [Compound 1, (2-morpholinobenzo[d]thiazol-5-yl)carbonohydrazonoyl dicyanide]	95.5	91.2	82.5	100	49.3	> 100
